Results from US20070049593A1 (priority 2004, published 2007).
Counter-ions that a name gives are not always drawn.

What follows are compounds tested against T1, HCV polymerase (Hepatitis C virus genotype 1b, UniProt P26663) (assay: biochemical).
T1 construct: a region encoding NS5B (J Virol 1991 March, 65(3), 1105-13, 544 amino acids after deletion of 47 amino acids on the C-terminal); 6xHis (C); made in house; host or cells: Escherichia coli
T1 sequence (P26663 2420-2963): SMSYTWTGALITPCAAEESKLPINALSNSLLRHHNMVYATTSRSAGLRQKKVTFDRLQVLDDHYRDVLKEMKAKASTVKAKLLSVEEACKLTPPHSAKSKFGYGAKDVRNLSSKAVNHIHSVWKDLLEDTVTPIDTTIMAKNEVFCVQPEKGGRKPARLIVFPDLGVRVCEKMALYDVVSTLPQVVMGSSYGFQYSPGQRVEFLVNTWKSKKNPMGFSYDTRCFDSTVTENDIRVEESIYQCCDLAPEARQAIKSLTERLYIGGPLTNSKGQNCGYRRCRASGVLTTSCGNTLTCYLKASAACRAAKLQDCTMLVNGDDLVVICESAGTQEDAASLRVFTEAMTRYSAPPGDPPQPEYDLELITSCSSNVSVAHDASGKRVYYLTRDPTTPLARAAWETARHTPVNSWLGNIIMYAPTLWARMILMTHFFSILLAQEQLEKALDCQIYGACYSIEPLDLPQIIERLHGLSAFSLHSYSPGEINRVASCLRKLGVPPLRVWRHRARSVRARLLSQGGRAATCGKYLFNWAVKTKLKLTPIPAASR
Design: species or system HCV BK strain
From the text: The evaluation of the HCV polymerase inhibitory activity of the compound of the present invention is explained in the following. This polymerase is an enzyme coded for by the non-structural protein region called NS5B on the genome RNA of HCV (EMBO J., 15:12-22, 1996).
Using, as a template, a cDNA clone corresponding to the full length genome RNA of HCV BK strain obtained from the blood of a patient with hepatitis C, a region encoding NS5B (J Virol 1991 March, 65(3), 1105-13, 544 amino acids after deletion of 47 amino acids on the C-terminal) was amplified by PCR. The objective gene was prepared by adding a 6 His tag {base pair encoding 6 continuous histidine (His)}to the 3′ end thereof and transformed to Escherichia coli. The Escherichia coli capable of producing the objective protein was cultured. The obtained cells were suspended in a buffer solution and crushed in a microfluidizer.
Using a synthetic primer designed based on the sequence of HCV genomic 3′ untranslated region, a DNA fragment (148 bp) containing polyU and 3′X sequence was entirely synthesized and cloned into plasmid pBluescript SK II(+) (Stratagene). The cDNA encoding full length NS5B, which was prepared in i) above, was digested with restriction enzyme KpnI to give a cDNA fragment containing the nucleotide sequence of from the restriction enzyme cleavage site to the termination codon. This cDNA fragment was inserted into the upstream of 3′ untranslated region of the DNA in pBluescript SK II(+) and ligated. The about 450 bp inserted DNA sequence was used as a template in the preparation of substrate RNA.
RNA was synthesized (37° C., 3 hr) by run-off method using this purified DNA as a template, a promoter of pBluescript SK II(+), MEGAscript RNA synthesis kit (Ambion) and T7 RNA polymerase. DNase I was added and the mixture was incubated for 1 hr. The template DNA was removed by decomposition to give a crude RNA product.
A test substance (compound of the present invention) and a reaction mixture (30 μl) having the following composition were reacted at 25° C. for 90 min.
10% Trichloroacetic acid at 4° C. and 1% sodium pyrophosphate solution (150 μl) were added to this reaction mixture to stop the reaction. The reaction mixture was left standing in ice for 15 min to insolubilize RNA. This RNA was trapped on a glass filter (Whatman GF/C and the like) upon filtration by suction. This filter was washed with a solution containing 1% trichloroacetic acid and 0.1% sodium pyrophosphate, washed with 90% ethanol and dried. A liquid scintillation cocktail (Packard) was added and the radioactivity of RNA synthesized by the enzyme reaction was measured on a liquid scintillation counter.
The HCV polymerase inhibitory activity (IC50) of the compound of the present invention was calculated from the values of radioactivity of the enzyme reaction with and without the test substance.
Reaction mixture: HCV polymerase (0.5 μg/ml) obtained in i), substrate RNA (5 μg/ml) obtained in ii), ATP (50 μM), GTP (50 μM), CTP ([…]), UTP (2 μM), [5,6-^3H]UTP (46 Ci/mmol (Amersham), 1 μCi) 20 mM Tris-HCl (pH 7.5), EDTA (1 mM), MgCl2 (5 mM), NaCl (50 mM), DTT (1 mM), BSA (0.01%)
Compound O=C(O)c1ccc2c(C3CCCCC3)c3n(c2c1)CCN(CCCC(=O)N1CCOCC1)c1ccccc1-3 [Example 1-61, 13-cyclohexyl-5-[4-(morpholin-4-yl)-4-oxobutyl]-6,7-dihydro-5H-benzo[5,6][1,4]diazepino[7,1-a]indole-10-carboxylic acid monohydrochloride] has an IC50 of under 100 nM.
CCN1CCN(C(=O)CCCN2CCn3c(c(C4CCCCC4)c4ccc(C(=O)O)cc43)-c3ccccc32)CC1 [Example 1-62, 13-cyclohexyl-5-[4-(4-ethylpiperazin-1-yl)-4-oxobutyl]-6,7-dihydro-5H-benzo[5,6][1,4]diazepino[7,1-a]indole-10-carboxylic acid dihydrochloride] was tested, and the IC50 was under 100 nM.
Work on Cc1ccc2c(c1)N(CC(=O)N1CCOCC1)CCn1c-2c(C2CCCCC2)c2ccc(C(=O)O)cc21 [Example 1-63, 13-cyclohexyl-3-methyl-5-[2-(morpholin-4-yl)-2-oxoethyl]-6,7-dihydro-5H-benzo[5,6][1,4]diazepino[7,1-a]indole-10-carboxylic acid monohydrochloride] yielded an IC50 of under 100 nM.
In the case of COc1ccc2c(c1)N(CC(=O)N1CCOCC1)CCn1c-2c(C2CCCCC2)c2ccc(C(=O)O)cc21 [Example 1-64, 13-cyclohexyl-3-methoxy-5-[2-(morpholin-4-yl)-2-oxoethyl]-6,7-dihydro-5H-benzo[5,6][1,4]diazepino[7,1-a]indole-10-carboxylic acid monohydrochloride], the IC50 is reported as under 100 nM.
In the case of COc1ccc2c(c1)N(CC(=O)N1CCCCC1)CCn1c-2c(C2CCCCC2)c2ccc(C(=O)O)cc21 [Example 1-65, 13-cyclohexyl-3-methoxy-5-[2-oxo-2-(piperidin-1-yl)ethyl]-6,7-dihydro-5H-benzo[5,6][1,4]diazepino[7,1-a]indole-10-carboxylic acid monohydrochloride], the IC50 is reported as under 100 nM.
For CCN1CCN(C(=O)CN2CCn3c(c(C4CCCCC4)c4ccc(C(=O)O)cc43)-c3ccc(OC)cc32)CC1 [Example 1-66, 13-cyclohexyl-5-[2-(4-ethylpiperazin-1-yl)-2-oxoethyl]-3-methoxy-6,7-dihydro-5H-benzo[5,6][1,4]diazepino[7,1-a]indole-10-carboxylic acid dihydrochloride], the IC50 was under 100 nM.
For COc1ccc2c(c1)N(CCN1CCOCC1)CCn1c-2c(C2CCCCC2)c2ccc(C(=O)O)cc21 [Example 1-67, 13-cyclohexyl-3-methoxy-5-[2-(morpholin-4-yl)ethyl]-6,7-dihydro-5H-benzo[5,6][1,4]diazepino[7,1-a]indole-10-carboxylic acid dihydrochloride], the IC50 was under 100 nM.
Work on Cc1ccc2c(c1)N(CCN1CCOCC1)CCn1c-2c(C2CCCCC2)c2ccc(C(=O)O)cc21 [Example 1-68, 13-cyclohexyl-3-methyl-5-[2-(morpholin-4-yl)ethyl]-6,7-dihydro-5H-benzo[5,6][1,4]diazepino[7,1-a]indole-10-carboxylic acid dihydrochloride] yielded an IC50 of under 100 nM.
O=C(O)c1ccc2c(C3CCCCC3)c3n(c2c1)CCN(CCN1CCCOCC1)c1ccccc1-3 [Example 1-69, 13-cyclohexyl-5-[2-(1,4-oxazepan-4-yl)ethyl]-6,7-dihydro-5H-benzo[5,6][1,4]diazepino[7,1-a]indole-10-carboxylic acid dihydrochloride] gave an IC50 of under 100 nM.
CS(=O)(=O)N1CCN(C(=O)CN2CCn3c(c(C4CCCCC4)c4ccc(C(=O)O)cc43)-c3ccccc32)CC1 [Example 1-70, 13-cyclohexyl-5-[2-(4-methanesulfonylpiperazin-1-yl)-2-oxoethyl]-6,7-dihydro-5H-benzo[5,6][1,4]diazepino[7,1-a]indole-10-carboxylic acid monohydrochloride] showed an IC50 of under 100 nM.
With CCC1CCN(C(=O)CN2CCn3c(c(C4CCCCC4)c4ccc(C(=O)O)cc43)-c3ccccc32)CC1 [Example 1-71, 13-cyclohexyl-5-[2-(4-ethylpiperidin-1-yl)-2-oxoethyl]-6,7-dihydro-5H-benzo[5,6][1,4]diazepino[7,1-a]indole-10-carboxylic acid monohydrochloride] the IC50 was under 100 nM.
